In brackets after ≈: the same amount, converted by molar mass.

One assay relates to Staphylococcus aureus. In words: Antibacterial activity against Staphylococcus aureus ATCC 6538 after 24 hrs. The note with it: ATCC 6538, 24 h. It is filed as functional.
The subject of another assay is T-24. The assay is described as follows: Cytotoxicity against human T24 cells after 48 hrs by MTS assay. It is filed as functional, cell-based. The following applies: T-24, 48 h. (Formazan colour is commonly taken as a measure of viable cells.)
The next assay deals with A549. In words: Cytotoxicity against human A549 cells after 48 hrs by MTS assay. The class given is functional, cell-based. The following applies: A549, 48 h.

Broadly, the MIC is the smallest concentration in the dilution series that meets the test's criterion for growth inhibition. As to `CC1(C)S[C@@H]2[C@H](NC(=O)[C@H](N)c3ccccc3)C(=O)N2[C@H]1C(=O)O` [AMPICILLIN], in the assay on Staphylococcus aureus, the MIC worked out at 0.46 µg/mL (≈ 1.32 µM).
By IC50 is commonly meant the midpoint of a concentration-inhibition curve. Turning to `COc1c(O)c(-c2c(O)c(OC)c(OC)c3c2OC(C)(O)C3=O)c2c(c1OC)C(=O)C(C)(O)O2` (centres undefined) [ARUNDINONE B], the IC50 in the assay with T-24 came out at 35.4 µM; with A549, 81.6 µM.
The compound `C=C(C)[C@@H]1CC[C@]2(C)C(=C(C)C(=O)C[C@H]2O)C1` [LIGUCYPERONOL] registered a minimum inhibitory concentration (MIC) in the assay on Staphylococcus aureus of 11.4 µg/mL (≈ 48.6 µM).

For the origin of these results see ChEMBL document CHEMBL2331453, “Arundinols A-C and arundinones A and B from the plant endophytic fungus Microsphaeropsis arundinis” (J Nat Prod, 2013).
